Article PMC5987162 (Biochimica et biophysica acta, 2018)
Read-outs that look alike come from different tables or passages of the source.

How the values were obtained:
[1] = test system: CD1 female mouse brain lipidome; test: Targeted brain lipidomics; type: in vivo; details: for magnitude class of change in PGE2 and PGF2α, HIPP: p < 0.05
[2] = test system: hippocampal transcriptome; test: RNA-Seq of hippocampus after acute THC versus vehicle; type: in vivo, mouse; details: for number of transcripts differentially expressed in the HIPP: 2 hours, 5% FDR
spatial working memory = details: male C57 mice, 3 mg/kg, tested 30 minutes later; cited from earlier work
novel object recognition = details: 3 mg/kg THC, 24 hours after dosing; cited from earlier work
gene expression = details: microarray, out of 24,500 possible genes, acute THC; cited from earlier work
[3] = PND 35, 2 hours after 3 mg/kg THC i.p.
[4] = adult, THC vs vehicle, significant
[5] = PND 50, 2 hours after 3 mg/kg THC i.p.
[6] = adult, 2 hours after 3 mg/kg THC i.p.

## (±)-11-nor-9-carboxyTHC
[3]
  rank of HIPP levels relative to other brain regions: highest

## CCCCCc1cc(O)c2c(c1)OC(C)(C)[C@@H]1CCC(C)=C[C@@H]21 [THC, Δ^9-tetrahydrocannabinol]
[1]; PND 35
  change in 2-AG in HYP: decrease
  change in N-oleoyl glycine in HYP: increase
  effect on AEA levels: unaffected
  number of brain areas with reduced 2-AG levels: 2
  number of decreases in lipid concentration, all 8 brain areas: 10
  number of increases in lipid concentration, all 8 brain areas: 23
  number of lipids decreased in HIPP: 1
  number of lipids increased in HIPP: 6
[1]; PND 35, 3 mg/kg i.p., 2 hours
  magnitude of change of PGE2 in the HIPP (THC mean divided by vehicle mean): 1.13
[1]; PND 35, THC vs vehicle
  magnitude class of change in PGE2 and PGF2α, HIPP: 1 up arrow
[1]; PND 35, THC vs vehicle, significant
  magnitude class of change in A-Taur, THAL: 1 up arrow
[1]; PND 35, out of 656 possible changes
  number of significant changes in lipid concentrations across all 8 brain areas: 33
[1]; PND 35 THC mice, 3 mg/kg i.p., 2 hours
  average level of PGE2 in the HIPP: 6.68×10^−10 moles per gram
[1]; PND 35 mouse
  change in levels of PGE2 and PGF2α in the HIPP: increase
[1]; PND 50
  change in AEA and its structural analogs the NAEs in STR: significantly increased
  change in PGF2α in HYP (only change in that region): increase
  number of brain regions with reduced 2-AG levels: 4
  number of brain regions with reduced AEA levels: 2
  number of decreases in lipid concentration, all 8 brain areas: 28
  number of increases in lipid concentration, all 8 brain areas: 30
  number of lipids decreased in CER: 8
  number of lipids increased in CER: 5
  number of lipids significantly modified, all 8 brain areas: 58
[1]; PND 50 mouse
  change in levels of PGE2 and PGF2α in the HIPP: no change
[1]; adult
  change in NAEs in all brain areas except the STR and CTX: significantly decreased
  change in levels of PGE2 and PGF2α in the HIPP: decrease
  number of brain regions with reduced 2-AG levels: 4
  number of brain regions with reduced AEA levels: 6
  number of changes in lipid levels in CER (all decreases): 14
  number of decreases in lipid concentration, all 8 brain regions: 99
  number of increases in lipid concentration, all 8 brain regions: 17
  number of lipids affected in STR: 3
  number of lipids altered in STEM: 28
  number of lipids changing in concentration across the 8 brain regions: 116
  number of lipids decreased in STEM: 24
  number of lipids decreased in STR: 2
  number of lipids increased in STEM: 4
  number of lipids increased in STR: 1
[1]; adult THC mice, 3 mg/kg i.p., 2 hours
  mean level of AEA in the HIPP: 4.76×10^−11 moles per gram
[1]; adult, 3 mg/kg i.p., 2 hours
  AEA in the HIPP, THC mean divided by vehicle mean: 0.87
  fold decrease of AEA in the HIPP (reciprocal of THC/vehicle): 1.15
[1]; adult, THC vs vehicle
  magnitude class of change in 2-OG, MID: 2 down arrows
  magnitude class of change in PGE2 and PGF2α, HIPP: 1 down arrow
[1]; [4]
  magnitude class of change in AEA, THAL: 1 down arrow
  magnitude class of change in SEA, THAL: 3 down arrows
[1]; adult, THC vs vehicle, trending (p < 0.1)
  magnitude class of change in A-Taur, THAL: 1 up arrow
[1]; all 3 age groups, THC vs vehicle
  magnitude class of change in 2-AG, MID: 1 down arrow
[2]; HIPP of both age groups, 3 mg/kg, larger magnitude in adult
  effect on FKBP5 message: upregulated
[2]; HIPP of mice from both age groups
  effect on Cdkn1a transcript: upregulated
[2]; HIPP, PND 35 and adult
  number of genes affected in the same direction regardless of age: 31
  number of shared transcripts significantly downregulated: 11
[2]; PND 35
  number of transcripts downregulated in the HIPP: 48
  number of transcripts upregulated in the HIPP: 41
[2]; PND 35, 3 mg/kg THC
  number of transcripts differentially expressed in the HIPP: 89
[2]; PND 35 HIPP
  log2 fold change of Plekhf1 (largest upregulation): 0.84
  log2 fold change of kdr (most robust downregulation): −0.73
  number of transcript changes unique to this age group: 58
  number of uniquely changed transcripts downregulated: 37
[2]; adult
  number of decreases in transcript expression in the HIPP: 80
  number of increases in transcript expression in the HIPP: 109
[2]; adult HIPP
  log2 fold change of Plekhf1 (largest upregulation): 1.36
  log2 fold change of cldn5 (most robust downregulation): −0.80
  number of transcript changes unique to this age group: 158
  number of unique transcript changes that were decreases: 69
  number of unique transcript changes that were increases: 89
[2]; adult and PND 35 HIPP
  effect on mRNA encoding the receptor for VEGF, Kdr: significantly lowered
[2]; adult, 3 mg/kg THC
  number of transcripts differentially expressed in the HIPP: 189
Spatial working memory
  effect on spatial working memory in the Morris water maze: significantly disrupted spatial working memory
Novel object recognition
  effect on novel object recognition: impaired
Gene expression
  number of genes with altered expression: 28
[3]
  brain area with highest levels: HIPP
[5]
  brain area with highest levels: HIPP
[6]
  brain area with highest levels: HIPP

## 11-OH-THC
[5]
  rank of HIPP levels relative to other brain regions: highest
[6]
  rank of HIPP levels relative to other brain regions: 5th
